Laboratory results published in patent publication US6037351A, “Method of inhibiting hepatitis B virus” (priority 1996, dated 2000).

Columns and labels:
[1] = system: hepatitis B virus (HBV); assay: HBV DNA from virions secreted into medium of 2.2.15 cells (Southern blot, densitometry); type: cell-based, HBV in human hepatoma HepG 2.2.15 cells; conditions: six days
Description: HepG 2.2.15 cells were grown for 6 days in the presence of the indicated concentration of NBDNJ with one change of medium. After the sixth day (seventh day in culture), cells and medium were collected. Autoradiograms of the viral DNA detected by hybridization of membranes to HBV probes are shown.
FIG. 2A: autoradiogram of a Southern blot of DNA recovered from the medium of 2.2.15 cells maintained in medium without NBDNJ (lanes 1 and 2); and in the following NBDNJ concentrations: 200 μg/ml (lane 3); 500 μg/ml (lane 4); and 1000 μg/ml (lane 5).
HepG2 cells were purchased from the European Collection of Animal Cell Cultures (Porton Down, UK). HepG2 2.15 [2.2.15, Sells and Chen, Proc. Natl. Acad. Sci. USA 84, 1005-1009 (1987)] cells were obtained from Dr. George Acs (Mt. Sinai Medical College, New York, USA).
All tissue cultures were maintained in 5% C02 in RPMI 1640 (GIBCO) medium, supplemented with 10% heat inactivated fetal calf serum (Techgen, London, U.K.), 50 units/ml. of penicillin and streptomycin, 1 mM glutamine (GIBCO). For 2.2.15 cells, 200 μgs/ml. Antibiotic G418 (Genticin, GIBCO) was added to the medium, as in Sells and Chen, Proc. Natl. Acad. Sci. USA 84, 1005-1009 (1987).
Medium from approximately 5×10^6 cells was precipitated with polyethylene glycol (PEG) 8000 (Sigma), after clarification, as in Sells and Chen, Proc. Natl. Acad. Sci. USA 84, 1005-1009 (1987), re-suspended in 0.5 ml. phosphate buffered saline (PBS) and sedimented through a cushion of 20% sucrose in PBS for 5 hours at 50,000 rpm in a Beckman T100.3 rotor (approx. 75,000×g).
DNA was prepared from the pellets as in Sells and Chen, Proc. Natl. Acad. Sci. USA 84, 1005-1009 (1987). […]

[2] = system: LHBs (PreS1) antigen; assay: ELISA of LHBs (PreS1) antigen in unfractionated culture medium of 2.2.15 cells; type: cell-based, HBV
Description: FIG. 3D: Histogram of the area under the averaged peaks of the densitometric tracing of the gel in FIG. 3B. […] Equal volumes of the indicated samples were tested for HBV envelope antigens using the enzyme-linked imminosorbent assay (ELISA) method. Samples of unfractionated medium (FIGS. 4A, 4B and 4C) or partially purified virus (FIGS. 4D, 4E and 4F) from 3-day cultures were tested for HBV SHBs ("S) (FIGS. 4A and 4D), LHBs: "PreS1" (FIGS. 4B and 4E) or MHBs "PreS2" (FIGS. 4C and 4F) epitopes. Cultures were maintained in the indicated concentrations of NBDNJ, expressed in millimolar units and shown along the X axis.
Detection of HBV proteins by the Enzyme Linked Immunoabsorbant assay (ELISA).
Monoclonal antibodies used herein are well-known and are described by Heerman et al., J. Virol. […]
Bound antigen was detected by incubation with peroxidase conjugated goat anti-HBs antibody (Behring) followed by development in orthophenylenediamine (0.33 mg/ml PBS-peroxide solution). Optical densities were read in a Behring plate reader. Tests on purified virus and total medium were conducted over a series of sample dilutions to insure proper quantification.
To distinguish between these possibilities, the amount and nature of envelope antigens in the culture medium was determined by both ELISA and Western analysis. […]

[3] = system: hepatitis B virus (HBV); assay: Secretion of HBV particles from HepG 2.2.15 and HBV infected HepG2 cells; type: cell-based, HBV in human hepatoma cells
[4] = system: Human Immunodeficiency Virus (HIV); conditions: cited from earlier work
[5] = stably transfected HepG 2.2.15 cells and HBV infected HepG2 cells

In the case of `CCCCN1C[C@H](O)[C@@H](O)[C@H](O)[C@H]1CO` [NBDNJ, N-butyl-1,5-dideoxy-1,5-imino-D-glucitol], the inhibition at 500 µg/mL ([1]; Hepatitis B virus, 144 h, NBDNJ 500 μg/ml (2.28 mM), densitometry of FIG. 2A, read-out: decrease in virus specific DNA in medium) is reported as 90%, the inhibition at 1000 µg/mL ([1]; Hepatitis B virus, 144 h, NBDNJ 1000 μg/ml, densitometry of FIG. 2A, read-out: decrease in virus specific DNA in medium) is reported as 99% and the “virus specific DNA obtained from the media of treated cells (in words)” value ([1]; NBDNJ 200, 500, 1000 μg/ml) is reported as “clear dose-dependent decrease”. For the same molecule, the “effect upon total amount of LHBs (PreS1) antigen in medium” value [2] was “no significant effect”, the “sensitivity of HBV virions and particles containing LHBs and MHBs vs SHBs enriched particles” value ([3]; relative to small SHBs enriched particles) was “more sensitive” and the “intracellular retention of HBV DNA (in words)” value [3, 5] was “cause intracellular retention of HBV DNA”. The “secretion of HBV particles (in words)” value [3, 5] was “suppress the secretion of HBV particles” and the “formation of cytotoxic HIV in vitro (in words)” value [4] was “suppress formation of cytotoxic Human Immunodeficiency Virus (HIV) in vitro”.
